PMC6332318, “Synthetic Development of New 3-(4-Arylmethylamino)butyl-5-arylidene-rhodanines under Microwave Irradiation and Their Effects on Tumor Cell Lines and against Protein Kinases” (Molecules, 2015)
Read-outs that look alike come from different tables or passages of the source.

Key:
[1] = tested on: Caco 2 cells (differentiating colorectal adenocarcinoma); assay: in vitro inhibition of cell proliferation / survival assay; format: cell-based; conditions: for viability at 25 µM / IC50: Homo sapiens; for viability at 25 µM / % of Survival: measured at 25 μM after 48 h, single dose, triplicate; for IC50: 48 h, average of three assays, standard error ± 0.5 μM
Protocol: (§1) As an initial effort to investigate their in vitro bioactivity, the new synthesized 3-(4-arylmethylamino)butyl-2-thioxo-1,3-thiazolidine-4-one 9a–n and also their precursors 6a–f were evaluated for their in vitro inhibition of cell proliferation. For this study, we used a panel of seven representative tumoral cell lines, namely HuH7 D12 (differential hepato cellular carcinoma), Caco 2 (differentiating colorectal adenocarcinoma), MDA-MBD231 ([…]), HCT 116 (actively proliferating colorectal adenocarcinoma), PC3 (prostate carcinoma), NCI-H727 (lung carcinoma), HaCat keratinocyte and, diploid skin fibroblasts as normal cell lines for control.
(§2) Skin diploid fibroblastic cells were provided by BIOPREDIC International Company (Rennes, France). Caco2 (Ref ECACC: 86010202), Huh-7D12 (Ref ECACC: 01042712), MDA-MB-231 (Ref ECACC: 92020424), HCT-116 (Ref ECACC: 91091005), PC3 (Ref ECACC: 90112714), NCI-H727 (Ref ECACC: 94060303) cell lines were obtained from the ECACC collection and HaCaT (from Cell Lines Service, Eppelheim, Germany). Cells were grown according to ECACC recommendations. The toxicity test of the compounds on these cells was as follows: 2 × 10^3 cells for HCT-116 cells or 4 × 10^3 for the other cells were seeded in 96 multiwell plates in triplicate and left for 24 h for attachment, spreading and growing. Then, cells were exposed for 48 h to increasing concentrations of the compounds, ranging from 0.1 to 25 μM in a final volume of 120 μL of culture medium. Cells were fixed in cooled solution of 90% ethanol/5% acetic acid, nuclei were stained with Hoechst 3342 (Sigma) and counted using automated imaging analysis (Cellomics Arrayscan VTI/HCS Reader, Thermo/Scientific, Waltham, MA, USA). The IC50 were graphically determined.

[2] = tested on: HCT 116 cells (actively proliferating colorectal adenocarcinoma); assay: as above; format: cell-based; conditions: for viability at 25 µM / IC50: Homo sapiens; for viability at 25 µM / % of Survival: measured at 25 μM after 48 h, single dose, triplicate; for IC50: 48 h, average of three assays, standard error ± 0.5 μM
Protocol: as §1, §2

HaCat keratinocyte = assay: as above; format: cell-based; conditions: for viability at 25 µM / IC50: Homo sapiens; for viability at 25 µM / % of Survival: measured at 25 μM after 48 h, single dose, triplicate; for IC50: HaCaT, 48 h, average of three assays, standard error ± 0.5 μM
Protocol: as §1, §2

[3] = tested on: Huh7 D12 cells (differential hepato cellular carcinoma); assay: as above; format: cell-based; conditions: for viability at 25 µM: Huh-7D12, measured at 25 μM after 48 h; for viability at 25 µM / % of Survival: single dose, triplicate; for % of Survival: measured at 25 μM after 48 h; for IC50: Huh-7D12, 48 h, average of three assays, standard error ± 0.5 μM
Protocol: as §1, §2

MDA-MB231 cells = assay: as above; format: cell-based; conditions: for viability at 25 µM / IC50: Homo sapiens; for viability at 25 µM: MDA-MB-231, measured at 25 μM after 48 h; for viability at 25 µM / % of Survival: single dose, triplicate; for % of Survival: measured at 25 μM after 48 h; for IC50: MDA-MB-231, 48 h, average of three assays, standard error ± 0.5 μM
Protocol: as §1, §2

[4] = tested on: NCI-H727 cells (lung carcinoma); assay: as above; format: cell-based; conditions: for viability at 25 µM: Homo sapiens, read-out: % of Survival
Protocol: as §1, §2

[5] = tested on: PC3 cells (prostate carcinoma); assay: as above; format: cell-based; conditions: for viability at 25 µM: PC-3, measured at 25 μM after 48 h; for viability at 25 µM / % of Survival: single dose, triplicate; for % of Survival: measured at 25 μM after 48 h
Protocol: as §1, §2

diploid skin fibroblasts = assay: in vitro inhibition of cell proliferation / survival assay, normal cells control; format: cell-based; conditions: for viability at 25 µM: read-out: % of Survival
Protocol: as §1, §2

[6] = NCI-H727, measured at 25 μM after 48 h, single dose, triplicate
[7] = Skin fibroblast, Fibroblasts, measured at 25 μM after 48 h, single dose, triplicate
[8] = Fibroblasts, measured at 25 μM after 48 h, single dose, triplicate

Compound | viability at 25 µM [1] | viability at 25 µM [2] | viability at 25 µM (HaCat keratinocyte) | viability at 25 µM [3] | viability at 25 µM (MDA-MB231 cells) | viability at 25 µM [4, 6] | viability at 25 µM ([5]; Homo sapiens) | viability at 25 µM (diploid skin fibroblasts; [7]) | melting point | other results
COc1cccc(/C=C2\SC(=S)N(CCCCNCc3cccc(OC)c3)C2=O)c1 [Compound 9g, (5Z)3-[4-(3-Methoxyphenylmethylamino)butyl]-5-(3-methoxybenzylidene)-2-thioxo-1,3-thiazolidin-4-one] | 117% | 118% | 110% | 111% | 104% | 95% | 98% | 100% | 225 to 227 °C | 
Cl.NCCCCNCc1ccccc1 [Compound 6a, N-1-Phenylmethyl-butane-1,4-diamine hydrochloride] | 114% | 112% | 97% | 102% | 104% | 97% | 100% | 93% | > 260 °C | 
Cl.NCCCCNCc1ccc2c(c1)OCCO2 [Compound 6f, N-1-(2,3-Dihydro-benzo[1,4]dioxin-6-ylmethyl)-butane-1,4-diamine hydrochloride] |  |  |  |  |  |  |  |  |  | % of Survival [1]: 109%; % of Survival [2]: 96%; % of Survival (HaCat keratinocyte): 94%; % of Survival [3]: 88%; % of Survival (MDA-MB231 cells): 99%; % of Survival [4, 6]: 92%; % of Survival [5]: 97%; % of Survival (diploid skin fibroblasts; [8]): 105%
Cl.NCCCCNCc1ccc2c(c1)OCO2 [Compound 6e, N-1-Benzo[1,3]dioxol-5-ylmethyl-butane-1,4-diamine hydrochloride] | 106% | 102% | 96% | 91% | 102% | 98% | 96% | 93% | > 260 °C | 
CC[C@H](CO)Nc1nc(NCc2ccccc2)c2ncn(C(C)C)c2n1 [Roscovitine, reference compound] |  |  |  |  |  |  |  |  |  | viability at 25 µM ([4]; NCI-H727, 48 h): 30%; viability at 25 µM (diploid skin fibroblasts; Skin fibroblast, 48 h): 53%
COc1cc(/C=C2\SC(=S)N(CCCCNCc3ccc4c(c3)OCO4)C2=O)ccc1O [Compound 9k, (5Z)3-[4-(1,3-Benzodioxol-5-ylmethylamino)butyl]-5-(4-hydroxy-3-methoxybenzylidene)-2-thioxo-1,3-thiazolidin-4-one] | 98% | 98% | 80% | 72% | 92% | 96% | 83% | 84% | 200 to 203 °C | 
Cl.NCCCCNCc1ccccc1Cl [Compound 6c, N-1-(2-Chloro-phenylmethyl)-butane1,4-diamine hydrochloride] |  |  |  |  |  |  |  |  |  | % of Survival [1]: 93%; % of Survival [2]: 98%; % of Survival (HaCat keratinocyte): 80%; % of Survival [3]: 82%; % of Survival (MDA-MB231 cells): 102%; % of Survival [4, 6]: 100%; % of Survival [5]: 96%; % of Survival (diploid skin fibroblasts; [8]): 84%
COc1ccc(/C=C2\SC(=S)N(CCCCNCc3ccc(OC)cc3)C2=O)cc1 [Compound 9b, (5Z)3-[4-(4-Methoxyphenylmethylamino)butyl]-5-(4-methoxybenzylidene)-2-thioxo-1,3-thiazolidin-4-one] | 108% | 102% | 104% | 105% | 97% | 90% | 99% | 167% | 253 to 255 °C | 
O=C1/C(=C/c2ccc3c(c2)OCO3)SC(=S)N1CCCCNCc1ccc2c(c1)OCCO2 [Compound 9l, (5Z)-[4-(2,3-Dihydro-benzo[1,4]dioxin-6-ylmethylamino)butyl]-5-(1,3-benzodioxol-5-ylmethylene)-2-thioxo-1,3-thiazolidin-4-one] | 105% | 106% | 95% | 90% | 98% | 96% | 93% | 128% |  | 
COc1ccc(CNCCCCN)cc1.Cl [Compound 6b, N-1-(4-Methoxy-phenylmethyl)-butane1,4-diamine hydrochloride] |  |  |  |  |  |  |  |  |  | % of Survival [1]: 114%; % of Survival [2]: 112%; % of Survival (HaCat keratinocyte): 106%; % of Survival [3]: 107%; % of Survival (MDA-MB231 cells): 100%; % of Survival [4, 6]: 86%; % of Survival [5]: 100%; % of Survival (diploid skin fibroblasts; [8]): 100%
O=C1/C(=C/c2ccc3c(c2)OCCO3)SC(=S)N1CCCCNCc1ccc2c(c1)OCCO2 [Compound 9m, (5Z)3-[4-(2,3-Dihydro-benzo[1,4]dioxin-6-ylmethylamino)butyl]-5-(2,3-dihydro-benzo[1,4]dioxin-6-ylmethylene)-2-thioxo-1,3-thiazolidin-4-one] | 107% | 103% | 94% | 97% | 99% | 98% | 96% | 149% |  | 
CC(=O)O[C@H]1C(=O)[C@@]2(C)[C@H]([C@H](OC(=O)c3ccccc3)[C@]3(O)C[C@H](OC(=O)[C@H](O)[C@@H](NC(=O)c4ccccc4)c4ccccc4)C(C)=C1C3(C)C)[C@]1(OC(C)=O)CO[C@@H]1C[C@@H]2O [Taxol, reference compound] | 29% | 9% | 11% | 36% | 41% | 59% | 35% | 76% |  | IC50 [1]: 40 nM; IC50 [2]: < 1 nM; IC50 (HaCat keratinocyte): 1 nM; IC50 [3]: 3 nM; IC50 (MDA-MB231 cells): 40 nM; IC50 ([5]; Homo sapiens, PC-3, 48 h, average of three assays, standard error ± 0.5 μM): < 1 nM; IC50 (diploid skin fibroblasts; Skin fibroblast, Fibroblasts, 48 h, average of three assays, standard error ± 0.5 μM): > 25000 nM
COc1cccc(CNCCCCN2C(=O)/C(=C/c3ccc4c(c3)OCO4)SC2=S)c1 [Compound 9e, (5Z)3-[4-(3-Methoxyphenylmethylamino)butyl]-5-(1,3-benzodioxol-5-ylmethylene)-2-thioxo-1,3-thiazolidin-4-one] | 97% | 99% | 86% | 74% | 97% | 102% | 85% | 122% |  | 
COc1cccc(CNCCCCN)c1.Cl [Compound 6d, N-1-(3-Methoxy-phenylmethyl)-butane-1,4-diamine hydrochloride] |  |  |  |  |  |  |  |  |  | % of Survival [1]: 111%; % of Survival [2]: 111%; % of Survival (HaCat keratinocyte): 96%; % of Survival [3]: 107%; % of Survival (MDA-MB231 cells): 99%; % of Survival [4, 6]: 92%; % of Survival [5]: 98%; % of Survival (diploid skin fibroblasts; [8]): 93%
COc1cccc2c1C(=O)c1c(O)c3c(c(O)c1C2=O)C[C@@](O)(C(=O)CO)C[C@@H]3O[C@H]1C[C@H](N)[C@H](O)[C@H](C)O1 [Doxorubicine, reference compound] | 43% | 22% | 88% | 63% | 82% | 65% | 34% | 74% |  | IC50 [1]: 30 nM; IC50 [2]: 30 nM; IC50 (HaCat keratinocyte): 20 nM; IC50 [3]: 30 nM; IC50 (MDA-MB231 cells): 10 nM
